Assay results taken from patent US9273046B2, “Fused tricyclic compounds as Raf kinase inhibitors” (BeiGene, LTD., priority 2011, dated 2016).

Legend:
C-Raf (Y340D/Y341D) = C-Raf (Y340D/Y341D) (Homo sapiens (Human), UniProt P04049, Y340D/Y341D); assay: Raf IC50 assay, time-resolved fluorescence energy transfer (TR-FRET), C-Raf; type: biochemical; details: 0.5 nM C-Raf, 0.1 mM ATP, GST-tagged MEK1 substrate, 60 min preincubation
Procedure: The assay was carried out in reactions (10 μL) containing 0.0625 nM B-Raf or 0.5 nM C-Raf, 25 mM Tris pH7.4, 10 mM MgCl2, 0.5 mM EGTA, 0.5 mM […], 5 mM beta-glycerophosphate, 0.01% Triton X-100, 2.5 mM DTT, 0.1% BSA, 0.1 mM ATP, 13.7 nM GST-tagged MEK1 (Full-length protein with K97R mutation, recombinant protein purified from bacterial expression system) and 0-5 μM compounds disclosed herein (final concentration of 1% DMSO). The enzyme was incubated with the compounds at room temperature for 60 minutes and the reactions were initiated by the addition of ATP and GST-MEK1. After incubating at room temperature for 60 minutes, an equal volume of stop buffer containing 25 mM Tris pH7.4, 400 mM KF, 50 mM EDTA, 0.01% BSA, 0.01% Triton X-100, 1 test of Eu3+ Cryptate-conjugated rabbit polyclonal antibody anti-Phospho MEK1/2 (Ser217/221) and 1 test of d2-conjugated mouse monoclonal antibody anti-glutathione S-transferase was added to stop the reactions. Plates were sealed and incubated at room temperature for 2 hours, and then the TR-FRET signals were read on BMG PHERAstar FS instrument. The IC50 for each compound was calculated by non linear regression by Graphpad Prism software.

B-Raf (V600E) = B-Raf (V600E) (Homo sapiens (Human), UniProt P15056, V600E); assay: Raf IC50 assay, time-resolved fluorescence energy transfer (TR-FRET), B-Raf; type: biochemical; details: 0.0625 nM B-Raf, 0.1 mM ATP, GST-tagged MEK1 substrate, 60 min preincubation; read-out: B-Raf (V600E) IC50
Procedure: The enzyme was incubated with the compounds at room temperature for 60 minutes and the reactions were initiated by the addition of ATP and GST-MEK1. […] Plates were sealed and incubated at room temperature for 2 hours, and then the TR-FRET signals were read on BMG PHERAstar FS instrument. The IC50 for each compound was calculated by non linear regression by Graphpad Prism software.

Chain of B-Raf (V600E) (P15056 whole entry V600E): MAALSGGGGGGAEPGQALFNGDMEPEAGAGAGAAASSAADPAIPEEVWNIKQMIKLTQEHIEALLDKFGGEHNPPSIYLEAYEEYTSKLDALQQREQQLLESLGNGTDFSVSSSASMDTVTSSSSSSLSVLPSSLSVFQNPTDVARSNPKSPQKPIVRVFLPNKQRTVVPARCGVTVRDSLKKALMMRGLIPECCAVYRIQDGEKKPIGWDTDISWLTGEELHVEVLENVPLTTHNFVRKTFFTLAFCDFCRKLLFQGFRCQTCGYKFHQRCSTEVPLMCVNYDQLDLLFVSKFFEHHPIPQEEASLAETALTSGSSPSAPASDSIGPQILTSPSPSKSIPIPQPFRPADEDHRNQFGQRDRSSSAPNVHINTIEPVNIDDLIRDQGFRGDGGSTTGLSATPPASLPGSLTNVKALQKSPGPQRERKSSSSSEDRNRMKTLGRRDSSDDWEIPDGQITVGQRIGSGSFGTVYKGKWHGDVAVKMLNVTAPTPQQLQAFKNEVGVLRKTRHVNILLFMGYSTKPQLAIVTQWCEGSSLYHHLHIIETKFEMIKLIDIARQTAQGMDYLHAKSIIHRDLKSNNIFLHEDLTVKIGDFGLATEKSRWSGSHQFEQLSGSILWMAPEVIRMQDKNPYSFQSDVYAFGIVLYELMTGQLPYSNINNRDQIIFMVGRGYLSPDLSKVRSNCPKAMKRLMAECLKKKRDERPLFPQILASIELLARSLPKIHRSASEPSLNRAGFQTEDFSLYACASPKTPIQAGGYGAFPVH
Chain of C-Raf (Y340D/Y341D) (P04049 whole entry Y340D/Y341D): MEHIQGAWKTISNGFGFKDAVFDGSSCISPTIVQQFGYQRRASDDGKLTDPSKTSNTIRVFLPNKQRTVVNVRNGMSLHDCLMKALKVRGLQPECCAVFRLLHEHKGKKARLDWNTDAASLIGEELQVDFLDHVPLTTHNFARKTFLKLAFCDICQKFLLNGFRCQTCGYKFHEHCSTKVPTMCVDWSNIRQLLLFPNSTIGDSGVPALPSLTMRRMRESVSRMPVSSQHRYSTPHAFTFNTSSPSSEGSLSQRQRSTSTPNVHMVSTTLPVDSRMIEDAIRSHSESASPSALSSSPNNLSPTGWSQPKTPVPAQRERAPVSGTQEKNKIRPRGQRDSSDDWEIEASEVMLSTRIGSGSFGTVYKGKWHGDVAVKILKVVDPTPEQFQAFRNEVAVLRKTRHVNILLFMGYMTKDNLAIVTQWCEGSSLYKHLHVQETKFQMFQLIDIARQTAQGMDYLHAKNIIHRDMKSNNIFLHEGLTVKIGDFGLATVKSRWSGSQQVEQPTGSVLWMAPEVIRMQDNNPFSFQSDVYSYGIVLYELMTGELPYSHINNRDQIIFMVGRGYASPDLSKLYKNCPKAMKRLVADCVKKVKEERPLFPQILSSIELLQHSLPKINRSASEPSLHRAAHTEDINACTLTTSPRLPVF

Compound: O=C1CCc2c(Oc3ccc4c(c3)C3C(O4)C3c3nc(-c4ccccc4Cl)c[nH]3)ccnc2N1 (stereo not shown) [Compound 2.32]
- IC50 (C-Raf (Y340D/Y341D)): 0.9 nM
- IC50 (B-Raf (V600E)): 3.3 nM

Compound: NC(=O)c1ccc2nc(C3C4Oc5ccc(Oc6ccnc7c6CCC(=O)N7)cc5C43)[nH]c2c1 (stereo not shown) [Compound 2.22]
- IC50 (C-Raf (Y340D/Y341D)): 1 nM
- IC50 (B-Raf (V600E)): 4 nM

Compound: O=C1CCc2c(Oc3ccc4c(c3)[C@H]3[C@@H](O4)[C@@H]3c3nc4cc(Cl)c(C(F)(F)F)cc4[nH]3)ccnc2N1 [Compound 2.5b]
- IC50 (C-Raf (Y340D/Y341D)): 2.5 nM

Compound: O=C1CCc2c(Oc3cccc4c3OC3C(c5nc6ccc(C(F)(F)F)cc6[nH]5)C43)ccnc2N1 (stereo not shown) [Compound 2.25]
- IC50 (C-Raf (Y340D/Y341D)): 36 nM
- IC50 (B-Raf (V600E)): 849 nM

Compound: O=C1CCc2c(Oc3ccc4c(c3)C3C(O4)C3c3nc4c(Cl)cc(C(F)(F)F)cc4[nH]3)ccnc2N1 (stereo not shown) [Compound 2.10]
- IC50 (C-Raf (Y340D/Y341D)): 25 nM
- IC50 (B-Raf (V600E)): 80 nM

Compound: O=C1CCc2c(Oc3ccc4c(c3)[C@H]3[C@@H](O4)[C@@H]3c3nc4ccc(C(F)(F)F)cc4[nH]3)ccnc2N1 [Compound 2.2a]
- IC50 (C-Raf (Y340D/Y341D)): 1.2 nM
- IC50 (B-Raf (V600E)): 6.7 nM

Compound: O=C1CCc2c(Oc3ccc4c(c3)C3C(O4)C3c3nc4cc(C(F)(F)F)ccc4n3CCO)ccnc2N1 (racemic) [Compound 2.34, (±)-exo-5-((1-(1-(2-hydroxyethyl)-5-(trifluoromethyl)-1H-benzo[d]imidazol-2-yl)-1a,6b-dihydro-1H-cyclopropa[b]benzofuran-5-yl)oxy)-3,4-dihydro-1,8-naphthyridin-2(1H)-one]
- IC50 (B-Raf (V600E)): 30 nM

Compound: CNC(=O)c1cc(Oc2ccc3c(c2)C2C(O3)C2c2nc3ccc(C(F)(F)F)cc3[nH]2)ccn1 (racemic) [Compound 3.1, (±)-exo-N-methyl-4-((1-(6-(trifluoromethyl)-1H-benzo[d]imidazol-2-yl)-1a,6b-dihydro-1H-cyclopropa[b]benzofuran-5-yl)oxy)picolinamide]
- IC50 (C-Raf (Y340D/Y341D)): 6.5 nM

Compound: O=C1CCc2c(Oc3ccc4c(c3)C3C(O4)C3c3nc4cc5c(cc4[nH]3)CCC5)ccnc2N1 (stereo not shown) [Compound 2.21]
- IC50 (B-Raf (V600E)): 1.2 nM

Compound: O=C1CCc2c(Oc3ccc4c(c3)C3C(O4)C3c3nc4cc(Cl)c(F)cc4[nH]3)ccnc2N1 (stereo not shown) [Compound 2.17]
- IC50 (C-Raf (Y340D/Y341D)): 5.9 nM
- IC50 (B-Raf (V600E)): 5.4 nM

Compound: N#Cc1ccc2nc(C3C4Oc5ccc(Oc6ccnc7c6CCC(=O)N7)cc5C43)[nH]c2c1 (stereo not shown) [Compound 2.6]
- IC50 (C-Raf (Y340D/Y341D)): 4.5 nM
- IC50 (B-Raf (V600E)): 22 nM

Compound: O=C1CCc2c(Oc3ccc4c(c3)C3C(O4)C3c3nc4cccc(F)c4[nH]3)ccnc2N1 (stereo not shown) [Compound 2.19]
- IC50 (C-Raf (Y340D/Y341D)): 1.6 nM
- IC50 (B-Raf (V600E)): 11 nM

Compound: Cn1c(C2C3Oc4ccc(Oc5ccnc6c5CCC(=O)N6)cc4C32)nc2cc(C(F)(F)F)ccc21 (stereo not shown) [Compound 2.24]
- IC50 (C-Raf (Y340D/Y341D)): 4.3 nM
- IC50 (B-Raf (V600E)): 47 nM

Compound: COc1ccc2nc(C3C4Oc5ccc(Oc6ccnc7c6CCC(=O)N7)cc5C43)[nH]c2c1 (stereo not shown) [Compound 2.16]
- IC50 (C-Raf (Y340D/Y341D)): 3.8 nM
- IC50 (B-Raf (V600E)): 15 nM

Compound: O=C1CCc2c(Oc3cc4c(cc3Cl)OC3C(c5nc6ccc(C(F)(F)F)cc6[nH]5)C43)ccnc2N1 (racemic) [Compound 2.36, (±)-exo-5-((4-chloro-1-(6-(trifluoromethyl)-1H-benzo[d]imidazol-2-yl)-1a,6b-dihydro-1H-cyclopropa[b]benzofuran-5-yl)oxy)-3,4-dihydro-1,8-naphthyridin-2(1H)-one]
- IC50 (C-Raf (Y340D/Y341D)): 32 nM
- IC50 (B-Raf (V600E)): 117 nM

Compound: O=C1CCc2c(Oc3ccc4c(c3)C3C(O4)C3c3nc4ccc(F)cc4[nH]3)ccnc2N1 (stereo not shown) [Compound 2.7]
- IC50 (C-Raf (Y340D/Y341D)): 2.1 nM
- IC50 (B-Raf (V600E)): 10 nM

Compound: O=C1CCc2c(Oc3ccc4c(c3)C3C(C4)C3c3nc4ccccc4s3)ccnc2N1 (racemic) [Compound 1.3, (±)-exo-5-((1-(benzo[d]thiazol-2-yl)-1,1a,6,6a-tetrahydrocyclopropa[a]inden-3-yl)oxy)-3,4-dihydro-1,8-naphthyridin-2(1H)-one]
- IC50 (C-Raf (Y340D/Y341D)): 5.5 nM
- IC50 (B-Raf (V600E)): 88 nM

Compound: FC(F)(F)c1ccc2nc(C3C4Oc5ccc(Oc6ccnc(-c7nc(C(F)(F)F)c[nH]7)c6)cc5C43)[nH]c2c1 (racemic) [Compound 3.4, (±)-exo-6-(trifluoromethyl)-2-(5-((2-(4-(trifluoromethyl)-1H-imidazol-2-yl)pyridin-4-yl)oxy)-1a,6b-dihydro-1H-cyclopropa[b]benzofuran-1-yl)-1H-benzo[d]imidazole]
- IC50 (C-Raf (Y340D/Y341D)): 56 nM
- IC50 (B-Raf (V600E)): 291 nM

Compound: Cn1c(C2C3Oc4ccc(Oc5ccnc6c5CCC(=O)N6)cc4C32)nc2ccccc21 (stereo not shown) [Compound 2.15]
- IC50 (C-Raf (Y340D/Y341D)): 3.6 nM
- IC50 (B-Raf (V600E)): 12 nM

Compound: Cn1c(C2C3Oc4ccc(Oc5ccnc6c5CCC(=O)N6)cc4C32)nc2ccc(C(F)(F)F)cc21 (stereo not shown) [Compound 2.23]
- IC50 (C-Raf (Y340D/Y341D)): 35 nM
- IC50 (B-Raf (V600E)): 204 nM

Compound: FC(F)(F)c1ccc2nc(C3C4Oc5ccc(Oc6ccncn6)cc5C43)[nH]c2c1 (racemic) [Compound 3.2, (±)-exo-2-(5-(pyrimidin-4-yloxy)-1a,6b-dihydro-1H-cyclopropa[b]benzofuran-1-yl)-6-(trifluoromethyl)-1H-benzo[d]imidazole]
- IC50 (C-Raf (Y340D/Y341D)): 223 nM

Compound: O=C1CCc2c(Oc3ccc4c(c3)C3C(O4)C3c3nc4ccncc4[nH]3)ccnc2N1 (stereo not shown) [Compound 2.9]
- IC50 (C-Raf (Y340D/Y341D)): 4.5 nM
- IC50 (B-Raf (V600E)): 42 nM

Compound: O=C1Nc2nccc(Oc3ccc4c(c3)C3C(O4)C3c3nc4ccc(C(F)(F)F)cc4[nH]3)c2CO1 (racemic) [Compound 3.7, (±)-exo-5-((1-(6-(trifluoromethyl)-1H-benzo[d]imidazol-2-yl)-1a,6b-dihydro-1H-cyclopropa[b]benzofuran-5-yl)oxy)-1H-pyrido[2,3-d][1,3]oxazin-2(4H)-one]
- IC50 (C-Raf (Y340D/Y341D)): 3.2 nM
- IC50 (B-Raf (V600E)): 26 nM

Compound: O=C1CCc2c(Oc3ccc4c(c3)C3C(O4)C3c3nc4ccccc4[nH]3)ccnc2N1 (racemic) [Compound 2.1, (±)-exo-5-((1-(1H-benzo[d]imidazol-2-yl)-1a,6b-dihydro-1H-cyclopropa[b]benzofuran-5-yl)oxy)-3,4-dihydro-1,8-naphthyridin-2(1H)-one]
- IC50 (C-Raf (Y340D/Y341D)): 0.3 nM
- IC50 (B-Raf (V600E)): 3.1 nM

Compound: O=C1CCc2c(Oc3ccc4c(c3)C3C(O4)C3c3nc(-c4ccccc4)no3)ccnc2N1 (racemic) [Compound 2.29, (±)-exo-5-((1-(3-phenyl-1,2,4-oxadiazol-5-yl)-1a,6b-dihydro-1H-cyclopropa[b]benzofuran-5-yl)oxy)-3,4-dihydro-1,8-naphthyridin-2(1H)-one]
- IC50 (C-Raf (Y340D/Y341D)): < 0.25 nM
- IC50 (B-Raf (V600E)): 3.2 nM

Compound: O=C1CCc2c(Oc3ccc4c(c3)C3C(O4)C3c3nc4ccc(O)cc4[nH]3)ccnc2N1 (racemic) [Compound 2.27, (±)-exo-5-((1-(6-hydroxy-1H-benzo[d]imidazol-2-yl)-1a,6b-dihydro-1H-cyclopropa[b]benzofuran-5-yl)oxy)-3,4-dihydro-1,8-naphthyridin-2(1H)-one]
- IC50 (C-Raf (Y340D/Y341D)): < 0.25 nM
- IC50 (B-Raf (V600E)): 2.5 nM

Compound: O=C1CCc2c(Oc3ccc4c(c3)C3C(O4)C3c3nc4ccc(Br)cc4[nH]3)ccnc2N1 (stereo not shown) [Compound 2.13]
- IC50 (C-Raf (Y340D/Y341D)): 1.7 nM
- IC50 (B-Raf (V600E)): 7.2 nM

Compound: O=C1CCc2c(Oc3ccc4c(c3)C3C(C4)C3c3nc4ccccc4[nH]3)ccnc2N1 (racemic) [Compound 1.1, (±)-exo-5-((1-(1H-benzo[d]imidazol-2-yl)-1,1a,6,6a-tetrahydrocyclopropa[a]inden-3-yl)oxy)-3,4-dihydro-1,8-naphthyridin-2(1H)-one]
- IC50 (B-Raf (V600E)): 11 nM

Compound: O=C1CCc2c(Oc3ccc4c(c3)[C@@H]3[C@H](O4)[C@H]3c3nc4cc(Cl)c(C(F)(F)F)cc4[nH]3)ccnc2N1 [Compound 2.5a]
- IC50 (C-Raf (Y340D/Y341D)): 21 nM

Compound: Cc1cc2[nH]c([C@@H]3[C@H]4Oc5ccc(Oc6ccnc7c6CCC(=O)N7)cc5[C@H]43)nc2cc1F [Compound 2.4a]
- IC50 (C-Raf (Y340D/Y341D)): 0.54 nM
